Source: PubChem BioAssay AID1845203 (Molecular Pharmacology Branch, DTP, NCI, 2023)

Test system: G-401 tumor spheroids, viability % test/control
Test: Anticancer human tumor G-401 cell line growth inhibition;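 also: spheroids exposed to compound for 7 days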;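 as to viability, T/C: 100% = DMSO vehicle-treated spheroids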
Settings: spheroids with HUVEC and MSC; for IC50: curve of first compound; for viability, T/C: stronger effect = lower value
How it was run: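 Complex tumor spheroids combined malignant cells with endothelial cells and mesenchymal stem cells. DNA-damaging drugs and DNA repair inhibitors were tested alone and in combination, at half-log dilutions down from clinical Cmax (top 10 microM if Cmax unknown), 0.25% DMSO final.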

[1] = second compound 0.003 µM, first compound 0.0316 µM
[2] = second compound 0.003 µM, first compound 0.1 µM
[3] = second compound 0.003 µM, first compound 0.316 µM
[4] = second compound 0.003 µM, first compound 1 µM
[5] = second compound 0.003 µM, first compound 3.16 µM
[6] = second compound 0.003 µM, first compound 10 µM
[7] = second compound 0.00949 µM, first compound 0.0316 µM
[8] = second compound 0.00949 µM, first compound 0.1 µM
[9] = second compound 0.00949 µM, first compound 0.316 µM
[10] = second compound 0.00949 µM, first compound 1 µM
[11] = second compound 0.00949 µM, first compound 3.16 µM
[12] = second compound 0.00949 µM, first compound 10 µM
[13] = second compound 0.03 µM, first compound 0.0316 µM
[14] = second compound 0.03 µM, first compound 0.1 µM
[15] = second compound 0.03 µM, first compound 0.316 µM
[16] = second compound 0.03 µM, first compound 1 µM
[17] = second compound 0.03 µM, first compound 3.16 µM
[18] = second compound 0.03 µM, first compound 10 µM
[19] = second compound 0.0949 µM, first compound 0.0316 µM
[20] = second compound 0.0949 µM, first compound 0.1 µM
[21] = second compound 0.0949 µM, first compound 0.316 µM
[22] = second compound 0.0949 µM, first compound 1 µM
[23] = second compound 0.0949 µM, first compound 3.16 µM
[24] = second compound 0.0949 µM, first compound 10 µM
[25] = second compound 0.3 µM, first compound 0.0316 µM
[26] = second compound 0.3 µM, first compound 0.1 µM
[27] = second compound 0.3 µM, first compound 0.316 µM
[28] = second compound 0.3 µM, first compound 1 µM
[29] = second compound 0.3 µM, first compound 3.16 µM
[30] = second compound 0.3 µM, first compound 10 µM

Structure (SMILES)	IC50 (second compound 0.003 µM) [nM]	IC50 (second compound 0.00949 µM) [nM]	IC50 (second compound 0.03 µM) [nM]	IC50 (second compound 0.0949 µM) [nM]	IC50 (second compound 0.3 µM) [nM]	viability, T/C [1] [%]	viability, T/C [2] [%]	viability, T/C [3] [%]	viability, T/C [4] [%]	viability, T/C [5] [%]	viability, T/C [6] [%]	viability, T/C [7] [%]	viability, T/C [8] [%]	viability, T/C [9] [%]	viability, T/C [10] [%]	viability, T/C [11] [%]	viability, T/C [12] [%]	viability, T/C [13] [%]	viability, T/C [14] [%]	viability, T/C [15] [%]	other results
CC(C)n1c(=O)n(C)c2cnc3cc(F)c(-c4ccc(OCCCN5CCCCC5)nc4)cc3c21 + CC[C@@]1(O)C(=O)OCc2c1cc1n(c2=O)Cc2cc3c(CN(C)C)c(O)ccc3nc2-1	< 31.6	< 31.6	< 31.6	< 31.6	< 31.6	18.3	20.1	19.8	22.7	16.1	10.8	12.9	15.5	14.9	14.6	12.9	7.82	13.8	11.8	13.9	viability, T/C [16]: 15.1%; viability, T/C [17]: 9.27%; viability, T/C [18]: 4.89%; viability, T/C [19]: 10.2%; viability, T/C [20]: 9.71%; viability, T/C [21]: 10.3%; viability, T/C [22]: 12.7%; viability, T/C [23]: 8.85%; viability, T/C [24]: 4.85%; viability, T/C [25]: 5.28%; viability, T/C [26]: 5.27%; viability, T/C [27]: 5.71%; viability, T/C [28]: 6.45%; viability, T/C [29]: 6.65%; viability, T/C [30]: 2.79%
CC1COCCN1c1cc(-c2ccnn2C)c2ccnc(-c3ccn[nH]3)c2n1 (stereo not given) + CC[C@@]1(O)C(=O)OCc2c1cc1n(c2=O)Cc2cc3c(CN(C)C)c(O)ccc3nc2-1	< 31.6	< 31.6	< 31.6	< 31.6	< 31.6	38.2	17.3	13.4	13.5	15	15.1	16.6	11.1	9.94	10.2	12.7	14.6	12.9	11.1	10.6	viability, T/C [16]: 10%; viability, T/C [17]: 11.1%; viability, T/C [18]: 12.1%; viability, T/C [19]: 10.7%; viability, T/C [20]: 8.92%; viability, T/C [21]: 8.64%; viability, T/C [22]: 8.17%; viability, T/C [23]: 8.68%; viability, T/C [24]: 9.11%; viability, T/C [25]: 6.09%; viability, T/C [26]: 5.5%; viability, T/C [27]: 5.49%; viability, T/C [28]: 4.45%; viability, T/C [29]: 4.16%; viability, T/C [30]: 3.75%
COc1cc(C)[nH]c(=O)c1CN1CCc2c(Cl)cc(C(OC)C3COC3)c(Cl)c2C1=O (stereo not given) + CC[C@@]1(O)C(=O)OCc2c1cc1n(c2=O)Cc2cc3c(CN(C)C)c(O)ccc3nc2-1	130	< 31.6	< 31.6	< 31.6	< 31.6	85.9	52.9	37.2	31.9	29.3	23.8	49.9	44.4	26.1	23.6	23.3	19.6	16	13.7	10.3	viability, T/C [16]: 11.8%; viability, T/C [17]: 12%; viability, T/C [18]: 9.84%; viability, T/C [19]: 7.14%; viability, T/C [20]: 7.77%; viability, T/C [21]: 7.29%; viability, T/C [22]: 6.9%; viability, T/C [23]: 6.42%; viability, T/C [24]: 6.61%; viability, T/C [25]: 5.24%; viability, T/C [26]: 5.58%; viability, T/C [27]: 5.45%; viability, T/C [28]: 5.13%; viability, T/C [29]: 5.04%; viability, T/C [30]: 4.44%
COc1ccc([C@@H](O)c2cc(-c3ncnc4cc(N5CCOCC5)ccc34)c(F)cc2Cl)nn1 + CC[C@@]1(O)C(=O)OCc2c1cc1n(c2=O)Cc2cc3c(CN(C)C)c(O)ccc3nc2-1	864	< 31.6	< 31.6	< 31.6	< 31.6	84.4	84.2	66.6	48.3	23.6	9.59	43.5	41.3	40.5	26.8	11.7	5.69	16.9	15.9	11.2	viability, T/C [16]: 8.51%; viability, T/C [17]: 5.48%; viability, T/C [18]: 3.09%; viability, T/C [19]: 7.39%; viability, T/C [20]: 7.68%; viability, T/C [21]: 6.35%; viability, T/C [22]: 5.25%; viability, T/C [23]: 3.31%; viability, T/C [24]: 1.7%; viability, T/C [25]: 4.49%; viability, T/C [26]: 4.63%; viability, T/C [27]: 3.66%; viability, T/C [28]: 2.59%; viability, T/C [29]: 0.94%; viability, T/C [30]: 0.33%
Cc1cc(C)c(CNC(=O)c2cc(-c3ccc(CN4CCOCC4)cc3)cc3c2cnn3C2CCCC2)c(=O)[nH]1 + CC[C@@]1(O)C(=O)OCc2c1cc1n(c2=O)Cc2cc3c(CN(C)C)c(O)ccc3nc2-1	4210	< 31.6	< 31.6	< 31.6	< 31.6	79.7	81.4	75.1	75.1	58.2	24.3	47.1	39.4	32.9	33.2	22.1	14.2	13.4	12.7	11	viability, T/C [16]: 9.58%; viability, T/C [17]: 7.81%; viability, T/C [18]: 7.38%; viability, T/C [19]: 7.91%; viability, T/C [20]: 8.43%; viability, T/C [21]: 7.6%; viability, T/C [22]: 6.51%; viability, T/C [23]: 5.89%; viability, T/C [24]: 5.15%; viability, T/C [25]: 5.19%; viability, T/C [26]: 5.25%; viability, T/C [27]: 4.23%; viability, T/C [28]: 4.83%; viability, T/C [29]: 4.3%; viability, T/C [30]: 4.73%
[2H]c1nc(C)nc([2H])c1-c1cc(NC[C@@H](C)c2cccc3c(C(=O)NC)ccnc23)ncn1 + CC[C@@]1(O)C(=O)OCc2c1cc1n(c2=O)Cc2cc3c(CN(C)C)c(O)ccc3nc2-1	> 10000	< 31.6	< 31.6	< 31.6	< 31.6	83.5	94.3	85.3	82.5	75.9	81	45.4	47.3	47.1	40.1	38.9	30.1	14.6	17.2	14	viability, T/C [16]: 16.9%; viability, T/C [17]: 15.4%; viability, T/C [18]: 12.3%; viability, T/C [19]: 7.88%; viability, T/C [20]: 8.52%; viability, T/C [21]: 8.28%; viability, T/C [22]: 7.66%; viability, T/C [23]: 7.94%; viability, T/C [24]: 6.94%; viability, T/C [25]: 4.71%; viability, T/C [26]: 4.82%; viability, T/C [27]: 5.34%; viability, T/C [28]: 5%; viability, T/C [29]: 4.69%; viability, T/C [30]: 5.48%
